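Briefly, cells in 96-well plates were exposed to five compound concentrations for 48 h, and endpoints were estimated by linear interpolation. At the TGI there is no net growth.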
Columns and labels:
Assay in all cases: inhibition of tumour cell growth, NCI panel, 48 h
786-0 renal = test system: 786-0 renal
A549 NSCLC = test system: A549 NSCLC
ACHN renal = test system: ACHN renal
BT-549 breast = test system: BT-549 breast
CAKI-1 renal = test system: CAKI-1 renal
COLO 205 colon = test system: COLO 205 colon
DU-145 prostate = test system: DU-145 prostate
EKVX NSCLC = test system: EKVX NSCLC
HCT-116 colon = test system: HCT-116 colon
HCT-15 colon = test system: HCT-15 colon
HOP-62 NSCLC = test system: HOP-62 NSCLC
HOP-92 NSCLC = test system: HOP-92 NSCLC
HS 578T breast = test system: HS 578T breast
HT29 colon = test system: HT29 colon
IGROV1 ovarian = test system: IGROV1 ovarian
LOX IMVI melanoma = test system: LOX IMVI melanoma
M14 melanoma = test system: M14 melanoma
MALME-3M melanoma = test system: MALME-3M melanoma
MCF7 breast = test system: MCF7 breast
MDA-MB-231 breast = test system: MDA-MB-231 breast
MDA-MB-435 = test system: MDA-MB-435
MDA-N = test system: MDA-N
MOLT-4 leukemia = test system: MOLT-4 leukemia
NCI-H226 lung = test system: NCI-H226 lung
NCI-H23 lung = test system: NCI-H23 lung
NCI-H460 lung = test system: NCI-H460 lung
NCI-H522 lung = test system: NCI-H522 lung
NCI/ADR-RES ovarian = test system: NCI/ADR-RES ovarian
OVCAR-3 ovarian = test system: OVCAR-3 ovarian
OVCAR-4 ovarian = test system: OVCAR-4 ovarian
OVCAR-8 ovarian = test system: OVCAR-8 ovarian
PC-3 prostate = test system: PC-3 prostate
RPMI-8226 leukemia = test system: RPMI-8226 leukemia
SF-268 CNS = test system: SF-268 CNS
SF-295 CNS = test system: SF-295 CNS
SF-539 CNS = test system: SF-539 CNS
SK-MEL-28 melanoma = test system: SK-MEL-28 melanoma
SK-MEL-5 melanoma = test system: SK-MEL-5 melanoma
SK-OV-3 ovarian = test system: SK-OV-3 ovarian
SN12C renal = test system: SN12C renal
SNB-19 CNS = test system: SNB-19 CNS
SNB-75 CNS = test system: SNB-75 CNS
SR leukemia = test system: SR leukemia
SW-620 colon = test system: SW-620 colon
T-47D breast = test system: T-47D breast
TK-10 renal = test system: TK-10 renal
UACC-257 melanoma = test system: UACC-257 melanoma
UACC-62 melanoma = test system: UACC-62 melanoma
UO-31 renal = test system: UO-31 renal
A498 renal = test system: A498 renal
CCRF-CEM leukemia = test system: CCRF-CEM leukemia
K-562 leukemia = test system: K-562 leukemia
KM12 colon = test system: KM12 colon
OVCAR-5 ovarian = test system: OVCAR-5 ovarian
RXF 393 renal = test system: RXF 393 renal
SK-MEL-2 melanoma = test system: SK-MEL-2 melanoma
U251 CNS = test system: U251 CNS

Measured: TGI

O=[N+]([O-])c1ccc(-c2nc3ccc(Cl)cc3[nH]2)cc1
not listed: A498 renal | CCRF-CEM leukemia | K-562 leukemia | KM12 colon | OVCAR-5 ovarian | RXF 393 renal | SK-MEL-2 melanoma | U251 CNS
> 100 µM: all other assays above

C[N+]12C=CC=C1C(N1CCCC1)c1scc(-c3ccccc3)c12 (configuration not stated)
47.8 µM: SNB-75 CNS
71.7 µM: MCF7 breast
90.1 µM: RXF 393 renal
41.2 µM: COLO 205 colon
87.8 µM: OVCAR-3 ovarian
84.3 µM: MDA-N
42.3 µM: SK-MEL-2 melanoma
37.4 µM: SR leukemia
49.8 µM: MALME-3M melanoma
29.1 µM: K-562 leukemia
70 µM: SN12C renal
78.4 µM: T-47D breast
89.9 µM: PC-3 prostate
64.6 µM: MOLT-4 leukemia
31.6 µM: IGROV1 ovarian
31.3 µM: KM12 colon
27.6 µM: SK-MEL-5 melanoma
67.5 µM: HS 578T breast
24.4 µM: HT29 colon
28.9 µM: NCI-H226 lung
29.7 µM: NCI-H522 lung
not listed: ACHN renal | HCT-15 colon | HOP-92 NSCLC | NCI-H23 lung | NCI-H460 lung | OVCAR-4 ovarian | SF-539 CNS | TK-10 renal | UACC-257 melanoma
> 100 µM: all other assays above

From PubChem BioAssay (NCI)
